The source of these data is US8822699B2, “Heterocyclic compound and use thereof” (Takeda Pharmaceutical Company Limited, priority 2010, dated 2014).

The test system of assay [1] is Aβ42 production in primary nerve cells. Put plainly: Measurement of amyloid β production inhibition rate using primary nerve cell (Aβ42 sandwich ELISA). It counts as cell-based. To be noted: primary nerve cells from cerebral cortex of SD rat fetus, cultured 3 days with compound, culture supernatant, sandwich ELISA for Aβ42, read-out: Aβ42 production inhibitory activity IC50. On the procedure:
Measurement of Amyloid β Production Inhibition Rate Using Primary Nerve Cell
The primary nerve cells were collected from the cerebral cortex of rat fetus (CLEA Japan, Inc.: SD rat, fetal life 17 days of age), and suspended in a neurobasal medium containing B27 supplement, L-glutamine, penicillin-streptomycin (manufactured by Invitrogen) at 500,000 cells/mL. Then, the suspension was seeded in poly L-lysine-coated 96 well plate (manufactured by SUMITOMO BAKELITE) by 100 μL, and cultured at 37° C., 5% CO2 for 7 days. The medium was completely removed, and a new neurobasal medium was added at 75 μL/well. Thereto was added (75 μL/well) a neurobasal medium supplemented with a 2-fold measurement concentration of an evaluation target compound, and the mixture was cultured for 3 days. The culture supernatant was collected from each well, diluted as appropriate, applied to sandwich ELISA between BNT77 antibody-BA27 antibody (for Aβ40) and sandwich ELISA between BNT77 antibody-3005 antibody (for Aβ42), and the amounts of Aβ40 and Aβ42 were measured.
The amyloid β production inhibition rate (%) of the compound was calculated by the following formula. (1−(amyloid β production amount with addition of compound)/(amyloid β production amount without addition of compound))×100
The amyloid β production 50% inhibitory rate (IC50 value) was calculated using the statistical analysis software (SAS Preclinical Package) as the concentration of the compound showing 50% inhibition when the amyloid β production amount without addition of the compound is 100%. In addition, a new neurobasal medium was added (75 μL/well) to the cells after collection of the culture supernatant, and the cells were left standing for about 30 min to reach room temperature. Cell-Titer Glo Luminescent Cell Viability Assay (manufactured by Promega) was added at 75 μL/well, and the plate was shaken for 2 min and reacted for about 10 min.
In general terms: An ELISA detects its analyte on a solid surface through an enzyme-linked reagent.

In assay [2] the test system is Aβ42 (soluble Aβ in hippocampi). Put plainly: Aβ42 in hippocampi of mice after oral administration (Aβ ELISA). It counts as in vivo. Particulars: C57BL/6J mice, 10 mg/kg orally, hippocampi isolated 3 hours after administration, soluble Aβ42 by two-site sandwich ELISA; for Aβ42 production inhibitory activity (% inhibition): 10 mg/kg; for inhibition at 10 mg/kg: Mus musculus, po, 3 h, read-out: Aβ42 production inhibitory activity (% inhibition). On the procedure:
C57BL/6J mice (7-10 weeks old) were purchased from CLEA Japan Inc. Mice were housed in groups and kept on a 12 h-light; 12 h-dark schedule. All mice were given ad libitum access to food and water.
Each test compound was reconstituted in solubilization buffer ([DMSO (Wako)]: [10% Cremophor (Nakarai)+30% polyethylene glycol 400 (Wako)+60% 2 mol/L Citrate buffer (Wako)]=1:9) and orally administrated at 10 mg/kg.
Hippocampi was isolated from animals, 3 hours after test compounds were orally administrated. Hippocampi were homogenized in ice-cold Tris-extraction buffer (50 mmol/L Tris-HCl, pH 7.2, 200 mmol/L sodium chloride, 2% protease-free bovine serum albumin, and 0.01% sodium merthiolate) containing protease inhibitor cocktails (Roche, Switzerland). After centrifugation at 15,000 rpm for 15 minutes, the supernatants were subjected to two-site sandwich ELISA to measure amount of soluble Aβ. Aβ42 was quantitated by two-site sandwich ELISA using BNT77, which recognizes Aβ11-28, as a capture antibody and BC05-HRP as a detector antibody, respectively.

Each structure is given as a SMILES string. Where two headings read alike, the source gives them in different places.

Take `COc1cc(-c2nnc3n2CCCC3(Oc2cccc(C(F)(F)F)c2)C(C)(C)O)ccc1-c1cnc(C)o1` (stereo not drawn) [Example 130, 2-{3-[3-methoxy-4-(2-methyl-1,3-oxazol-5-yl)phenyl]-8-[3-(trifluoromethyl)phenoxy]-5,6,7,8-tetrahydro[1,2,4]triazolo[4,3-a]pyridin-8-yl}propan-2-ol]: the IC50 in assay [1] was determined as 24 nM. For the same compound, in assay [2], the “Aβ42 production inhibitory activity (% inhibition)” value is 59%.

Regarding `COc1cc(-c2nnc3n2CCCC3(Oc2ccc(C(F)(F)F)cc2)C(C)(C)O)ccc1-c1cnc(C)o1` (stereo not drawn) [Example 132, 2-{3-[3-methoxy-4-(2-methyl-1,3-oxazol-5-yl)phenyl]-8-[4-(trifluoromethyl)phenoxy]-5,6,7,8-tetrahydro[1,2,4]triazolo[4,3-a]pyridin-8-yl}propan-2-ol], in assay [1], the half-inhibitory concentration (IC50) was 19 nM. For the same compound, the “Aβ42 production inhibitory activity (% inhibition)” value in assay [2] worked out at 58%.

For the compound `COc1nc(-c2nnc3n2CCCC3(Oc2cc(F)c(F)c(F)c2)C(C)(C)O)ccc1-n1cnc(C)c1` (stereo not drawn) [Example 134, 2-{3-[6-methoxy-5-(4-methyl-1H-imidazol-1-yl)pyridin-2-yl]-8-(3,4,5-trifluorophenoxy)-5,6,7,8-tetrahydro[1,2,4]triazolo[4,3-a]pyridin-8-yl}propan-2-ol], in assay [1] (Rattus norvegicus, 72 h), the IC50 came to 42 nM. The inhibition at 10 mg/kg in assay [2] was 31%.

For `COc1cc(-c2nnc3n2CCCC3(Oc2ccc(Cl)c(C(F)(F)F)c2)C(C)(C)O)ccc1-n1cnc(C)n1` (stereo not drawn) [Example 139, 2-{8-[4-chloro-3-(trifluoromethyl)-phenoxy]-3-[3-methoxy-4-(3-methyl-1H-1,2,4-triazol-1-yl)phenyl]-5,6,7,8-tetrahydro-[1,2,4]triazolo[4,3-a]pyridin-8-yl}propan-2-ol], the IC50 in assay [1] (Rattus norvegicus, 72 h) is 40 nM. Moreover, the inhibition at 10 mg/kg in assay [2] came out at 22%.

`COc1cc(-c2nnc3n2CCCC3(Oc2cc(F)cc(F)c2)C(C)(C)O)ccc1-c1cnc(C)o1` (stereo not drawn) [Example 141, 2-{8-(3,5-difluorophenoxy)-3-[3-methoxy-4-(2-methyl-1,3-oxazol-5-yl)phenyl]-5,6,7,8-tetrahydro[1,2,4]triazolo[4,3-a]pyridin-8-yl}propan-2-ol]: in assay [1], the 50% inhibitory concentration (IC50) was determined as 78 nM. Besides, the inhibition at 10 mg/kg in assay [2] worked out at 46%.

As for `COc1cc(-c2nnc3n2CCCC3(Oc2cc(F)c(F)c(F)c2)C(C)(C)O)ccc1-c1cnn(C)c1` (stereo not drawn) [Example 144, 2-{3-[3-methoxy-4-(1-methyl-1H-pyrazol-4-yl)phenyl]-8-(3,4,5-trifluorophenoxy)-5,6,7,8-tetrahydro[1,2,4]triazolo[4,3-a]pyridin-8-yl}propan-2-ol], in assay [1] (Rattus norvegicus, 72 h), the IC50 was found to be 214 nM. The inhibition at 10 mg/kg in assay [2] turned out to be 31%.

Regarding `COc1nc(-c2nnc3n2CCC[C@]3(Oc2cc(F)c(F)c(F)c2)C(C)(C)O)ccc1-n1cnc(C)c1` [Example 152, 2-{(8R)-3-[6-methoxy-5-(4-methyl-1H-imidazol-1-yl)pyridin-2-yl]-8-(3,4,5-trifluorophenoxy)-5,6,7,8-tetrahydro[1,2,4]triazolo[4,3-a]pyridin-8-yl}propan-2-ol], the 50% inhibitory concentration (IC50) in assay [1] (Rattus norvegicus, 72 h) came out at 49 nM. Moreover, in assay [2], the inhibition at 10 mg/kg was determined as 57%.

On to `COc1cc(-c2nnc3n2CCCC3(Oc2cc(F)cc(F)c2)C(C)(C)O)ccc1-c1cnc(C)o1` (stereo not drawn) [Example 155, 2-{8-(3,5-difluorophenoxy)-3-[3-methoxy-4-(2-methyl-1,3-oxazol-5-yl)phenyl]-5,6,7,8-tetrahydro[1,2,4]triazolo[4,3-a]pyridin-8-yl}propan-2-ol], for which, in assay [1], the concentration for half-maximal inhibition (IC50) worked out at 28 nM. Further, the “Aβ42 production inhibitory activity (% inhibition)” value in assay [2] amounted to 56%.

Regarding `COc1nc(-c2nnc3n2CCCC3(Oc2ccc(F)c(C(F)(F)F)c2)C(C)(C)O)ccc1-n1cnc(C)c1` (stereo not drawn) [Example 157, 2-{8-[4-fluoro-3-(trifluoromethyl)phenoxy]-3-[6-methoxy-5-(4-methyl-1H-imidazol-1-yl)pyridin-2-yl]-5,6,7,8-tetrahydro[1,2,4]triazolo[4,3-a]pyridin-8-yl}propan-2-ol], the IC50 in assay [1] amounted to 6 nM. The inhibition at 10 mg/kg in assay [2] amounted to 61%.

Turning to `COc1cc(-c2nnc3n2CCCC3(Oc2cc(F)c(F)c(F)c2)C(C)(C)O)c(F)cc1-c1cnc(C)o1` (stereo not drawn) [Example 162, 2-{3-[2-fluoro-5-methoxy-4-(2-methyl-1,3-oxazol-5-yl)phenyl]-8-(3,4,5-trifluorophenoxy)-5,6,7,8-tetrahydro[1,2,4]triazolo[4,3-a]pyridin-8-yl}propan-2-ol], the IC50 in assay [1] (Rattus norvegicus, 72 h) was 86 nM. Besides, the inhibition at 10 mg/kg in assay [2] stood at 26%.

For `COc1nc(-c2nnc3n2CCCC3(Oc2cc(F)c(F)c(F)c2)C(C)(C)O)ccc1-c1cnc(C)o1` (stereo not drawn) [Example 172, 2-{3-[6-methoxy-5-(2-methyl-1,3-oxazol-5-yl)pyridin-2-yl]-8-(3,4,5-trifluorophenoxy)-5,6,7,8-tetrahydro[1,2,4]triazolo[4,3-a]pyridin-8-yl}propan-2-ol], the concentration for half-maximal inhibition (IC50) in assay [1] (Rattus norvegicus, 72 h) turned out to be 47 nM. Further, in assay [2], the inhibition at 10 mg/kg turned out to be 35%.

`COc1cc(-c2nnn3c2CCCC3(Oc2cc(F)c(F)c(F)c2)C(C)(C)O)ccc1-c1cnc(C)o1` (stereo not drawn) [Example 186, 2-{3-[3-methoxy-4-(2-methyl-1,3-oxazol-5-yl)phenyl]-7-(3,4,5-trifluorophenoxy)-4,5,6,7-tetrahydro[1,2,3]triazolo[1,5-a]pyridin-7-yl}propan-2-ol]: the 50% inhibitory concentration (IC50) in assay [1] is 28 nM. Also, the inhibition at 10 mg/kg in assay [2] was determined as 22%.

As a reminder, the IC50 is the concentration needed to halve the response being measured. The term inhibition denotes the drop in the measured response relative to a control, in per cent.
